# Test results published in patent publication US20230322815A1, “NOVEL COMPOUNDS AND THERAPEUTIC USES THEREOF” (University of Huddersfield, priority 2020, published 2023).
# Tests used:
# [1] = Phosphatase activity: hydrolysis of 4-nitrophenyl phosphate; details: UV-Vis spectroscopy, after 24 hrs
# Excerpt: Only [L2Zn3(PO4)]^3+ was observed, coupled with a rapid yellowing of the solution due to the formation of 4-nitrophenolate.
# The rate of substrate hydrolysis is also dependent upon the metal used in the self-assembly process.
# ARPE19 non-cancer cells = assay: Cellular ATP levels; type: cell-based, human; details: 100 μM, 20 h
# Description: FIG. 20. The effects of [L2Cu3]^6+, [L2Zn3]^6+ and [L2Mn3]^6+ on cellular ATP levels in the ARPE19 non-cancer and HCT116 p53^+/+ cancer cells. The effects of 20 h treatment with the indicated concentrations of [L2Cu3]^6+, [L2Zn3]^6+, or [L2Mn3]^6+ on total cellular levels of ATP compared to levels in vehicle control-treated ARPE19 or HCT116^+/+ cells. n=3 biological repeats, students t-test (p values).
# Cellular ATP studies: The effects of 20 h treatment with a range of different concentrations of [L2Cu3]^6+, [L2Zn3]^6+ and [L2Mn3]^6+ on total cellular ATP levels in HCT116 p53^+/+ and ARPE19 cells are presented in FIG. 20. Differential effects are observed depending on the metal in the complex, with [L2Mn3]^6+ having the most profound effects on both the HCT116 p53^+/+ cancer and ARPE19 non-cancer cells. 6.25 μM [L2Mn3]^6+ treatment for 20 h reduced ATP levels in the HCT116 p53^+/+ cancer cells to <50% with ATP levels declining less in the ARPE19 non-cancer cells but reaching ˜40% with 100 μM [L2Mn3]^6+ treatment. […] Effects of [L2Cu3]^6+ on ATP levels was much less, with ATP levels in the HCT116 cells reduced to <50% only at the highest concentration of 100 μM.
# [2] = test system: HCT116 p53^+/+ cancer cells; assay: Autophagy (CYTO-ID staining, confocal); type: cell-based, human; details: 3.125 μM, 40 h
# Description: (§1) FIG. 18. The effects of [L2Cu3]^6+, [L2Zn3]^6+ and [L2Mn3]^6+ on cellular vacuole formation and autophagy in the HCT116 p53^+/+ cancer cells. Representative confocal images are shown of HCT116 p53^+/+ cancer cells following 40 h treatment with vehicle control or 3.125 μM [L2Cu3]^6+, [L2Zn3]^6+, or [L2Mn3]^6+.
# (§2) Autophagy studies: The effects of 3.125 μM [L2Cu3]^6+, [L2Zn3]^6+ and [L2Mn3]^6+ treatments (40 h) on the induction of cellular vacuoles and autophagy in the HCT116 p53^−/−, HCT116 p53^+/+ and ARPE19 cells are presented in FIGS. 17-19 with representative cell images shown. […] In the ARPE19 cells, levels of autophagy were low with all treatments and similar to basal levels in control-treated cells (FIG. 19).
# [3] = test system: HCT116 p53^−/− cancer cells; assay: Autophagy (CYTO-ID staining, confocal); type: cell-based, human; details: 3.125 μM, 40 h
# Description: as §1, with “17.” for “18.”, “p53^−/−” for “p53^+/+”
# as §2
# [4] = test system: panel of human cancer (HT-29, DLD-1, HCT116 p53^+/+ and p53^−/−, PSN1, MiaPaCa2, BxPC3, A549, H460, GBM1) and non-cancer cell lines (ARPE-19, MCF10A, NP1); assay: Chemosensitivity of a panel of human cancer and non-cancer cell lines (MTT, 96 h); type: cell-based; details: cancer versus non-cancer cells
# Description: FIG. 7. Chemosensitivity response of a panel of human cancer and non-cancer cell lines to 96 h continuous exposure to self-assembling test compounds. a, The potency of compounds tested against cancer (HT-29, DLD-1, HCT116 p53^+/+ and […], PSN1, MiaPaCa2, BxPC3, A549, H460 and GBM1) and non-cancer cells (ARPE-19, MCF10A and NP1). Each value represents the mean IC50±standard deviation from a minimum of three independent experiments. b,c, The selectivity index (SI) for [L2Cu3]^6+ (b) and [L2Zn3]^6+ (c) for the indicated cancer cell lines; SI is defined as the mean IC50 against the particular non-cancer cell line model divided by the mean IC50 against the particular cancer cell line. […] As the SI value is calculated using the mean IC50 values, experimental error is not included in these figures. d,e, IC50 values for the clinically approved platinates (cisplatin, oxaliplatin and carboplatin) and [L2Mn3]^6+ and the corresponding SI results.
# All cell lines used were maintained at low passage in antibiotic-free media and were obtained from ATCC (LGC Standards, Middlesex, UK) unless otherwise stated (Methods). HT29, DLD-1, HCT116 p53^+/+ and HCT116 p53^−/− are all colorectal adenocarcinoma cell lines derived from different individuals and harbor different combinations of oncogenic lesions (except for the HCT116 isogenic cancer cell clones that are genetically identical except for p53 status). PSN-1, BxPC-3 and MiaPaCa2 are pancreatic carcinoma cell lines and A549 and H460 are lung carcinoma cell lines. HT29, DLD-1, PSN-1, BxPC-3, A549 and H460 cell lines were cultured in RPMI-1640 growth media (Sigma) containing 2 mM L-glutamine, 1 mM sodium pyruvate and 10% fetal bovine serum (FBS). HCT116 (p53^+/+ and p53^−/−) and MiaPaCa2 cell lines were cultured in Dulbecco's Modified Eagle's Medium (Sigma), 2 mM L-glutamine and 10% FBS. The ARPE-19 retinal epithelial non-cancer cell line (Dunn et al., 1996) was cultured in DMEM/F12 media (Gibco), 2 mM L-glutamine, 1 mM sodium pyruvate and 10% FBS. The MCF10A non-cancerous human breast epithelial cell line was cultured in Minimal Essential Media Eagle (Sigma), 2 mM L-glutamine, 1 mM sodium pyruvate, 10% FBS and 1×non-essential amino acids (NEAA). NP1 and GBM1 cells were cultured on plasticware coated with poly-L-ornithine (5 μg/ml) and laminin (2.4 μg/ml) (Polson et al., 2018; Da Silva et al., 2019). […]
# [L2M3]^6+ and all the other self-assembling complexes were freshly formed by adding DMSO to individual components mixing together by pipetting. […] Media and MTT were removed and formazan crystals were dissolved in 150 μl of DMSO and the absorbance of the resulting solution determined at 540 nm. […]
smiles,measurement,setting,value
[Mn+2].[Mn+2].[Mn+2].c1ccc(-c2csc(NCCN(CCNc3nc(-c4ccccn4)cs3)CCNc3nc(-c4ccccn4)cs3)n2)nc1.c1ccc(-c2csc(NCCN(CCNc3nc(-c4ccccn4)cs3)CCNc3nc(-c4ccccn4)cs3)n2)nc1 [[L2Mn3]^6+],phosphate hydrolysed compared with the Zn^2+ species,[1],three times more phosphate
same,ATP levels compared to vehicle control,ARPE19 non-cancer cells,~40%
same,induction of autophagy,[2],evident
same,induction of autophagy,[3],most pronounced
same,preferential selectivity towards cancer cells,[4],~2 fold
